The values below come from US20240050434A1, “HORMAD1 THERAPEUTICS” (Royal Cancer Hospital, priority 2020, published 2024).

Each structure is given as a SMILES string. “Also recorded” adds a separate entry of the source.

The test system of the assay is SUM159 cells expressing a doxycycline-inducible HORMAD1 construct. The experiment in a line: Clonogenic survival assay (SRB) in SUM159 cells with doxycycline-inducible HORMAD1. Format: cell-based. The note with it: increasing doses, 10-14 days, normalised to vehicle. How it is done:
Cell confluence was analysed every 6 hours for 10 days, using incucyte software. Data are from 3 biological replicates and analysed using a two-way ANOVA. […] RPE1 cells expressing a doxycycline-inducible HORMAD1 expression construct were exposed to doxycycline or vehicle (H2O) and were exposed to 20 nM of the Aurora B inhibitor, AZD1152-HQPA. Cell confluence was analysed every 6 hours for 10 days, using incucyte software. Data are from 3 biological replicates and analysed using a two-way ANOVA. […] 7-10 days post drugging, cells were fixed, stained with SRB, and colonies were counted using Cell Profiler. […] 10 days post drugging, cells were fixed, stained with SRB, and colonies were counted using Cell Profiler. […] 7-10 days post drugging, cells were fixed, stained with SRB, and colonies were counted using Cell Profiler. […] 10 days post drugging, cells were fixed, stained with SRB, and colonies were counted using Cell Profiler.
RPE1 and SUM159 cells expressing a doxycycline-inducible HORMAD1 construct were treated with doxycycline or vehicle. […] Surviving fractions were calculated (normalised to vehicle treated cells). […] Data from 3 replicas was analysed using 2-way ANOVA. […] Surviving fractions were calculated (normalised to vehicle treated cells). Data from 4 replicas was analysed using 2-way ANOVA. […]

For `CCN(CCO)CCCOc1ccc2c(Nc3cc(CC(=O)Nc4cccc(F)c4)[nH]n3)ncnc2c1` [AZD1152-HQPA], the “clonogenic survival / sensitivity of HORMAD1 expressing versus HORMAD1-negative SUM159 cells” value is “reduced clonogenic survival; also recorded: increased Aurora B inhibitor sensitivity”.
